Measured values: PMC8868285, “Pharmacological Inhibition of Epac1 Averts Ferroptosis Cell Death by Preserving Mitochondrial Integrity” (Antioxidants, 2022)

What was measured:
HT-22 cells = experiment: Soluble ROS, CM-DCF FACS; format: cell-based, mouse
Protocol: Soluble ROS was evaluated by CM-DCF fluorescent dye (Invitrogen, Oregon City, OR, USA). CM-DCF passively diffuses into cells, and reacts with glutathione and other thiols following cleavage by intracellular esterases, which in turn exposes the thiol-reactive chloromethyl group. The oxidation that follows results in a fluorescent adduct that is ensnared within the cell. The higher the fluorescence, the more cellular ROS is produced in the cells.

[1] = test system: isolated mitochondria from HT-22 cells; experiment: High-resolution respirometry (Oroboros) of isolated mitochondria; design: species or system mouse
Protocol: Mitochondria were isolated from harvested HT-22 cells (4–8 × 10^7 cultivated in T75 flasks) using a semi-automated pump-controlled cell rupture system (PCC) (0.71 mL/min) with syringes (SGE, Trajan© Scientific, Ringwood, Australia) attached to a cell homogenizer (Isobiotech, EMBL, Heidelberg, Germany) (bead size of 10 μm suitable for HT-22 cells) and superimposed on a pump (ProSense B.V, Oosterhout, The Netherlands, #NE1000). Collected samples were centrifuged at 800 rpm for 10 min at 4 °C. The supernatant was further centrifuged at 9000× g for 10 min at 4 °C. The resulting pellet was the crude mitochondria. Finally, the mitochondria were suspended in an isolation buffer (HEPES 20 mM, sucrose 250 mM EDTA 3 mM, pH 7.5) for subsequent experiments. The whole procedure was executed on ice.
The protein concentration of isolated mitochondria was determined using the Pierce™ BCA Protein Assay Kit (Pierce™ BCA Protein Assay Kit, Thermo Scientific, Rockford, IL, USA, #23225). Respiration of the isolated mitochondria from HT-22 cells was analyzed using the high-resolution respirometry oxygraph O2K (Oroboros Systems, Innsbruck, Austria). The isolated mitochondria (200 μg) prepared as previously described, were treated with either CE3F4, ESI-05, ethanol, or DMSO as appropriate for 25 min, followed by mitochondrial respiration measurements. Mitochondrial state 1 was determined by continuous stirring at 750 rpm in 1 mL of MiR05 buffer (MgCl2 3 mM, lactobionic acid 60 mM, EGTA 0.5 mM taurine 20 mM, KH2PO4 10 mM, D-Sucrose 110 mM, HEPES 20 mM, BSA, essential fatty acid-free1 g/L, pH adjusted to 7.4). DatLab software (Oroboros Systems, Innsbruck, Austria) was used to record real-time oxygen flux per tissue mass (pmol O2. s^−1 × mg^−1) at 37 °C and to perform oxygen polarography. States were described as, State 2: a non-phosphorylating respiration state which was assessed by addition of complex-I linked substrates, 5 mM pyruvate (Sigma–Aldrich Chemie GmbH, Steinheim, Germany #P-2256), and 2 mM malate (Sigma–Aldrich Chemie GmbH, Steinheim, Germany, #374318); State 3: the oxidative-phosphorylation capacity (OXPHOS) state, of complex-I linked activity or basal respiration was achieved by adding a saturating concentration of 0.8 mM ADP (Sigma–Aldrich Chemie GmbH, Steinheim, Germany, #A5285), this allowed for calculation of ADP-coupled repiration; State 4: Achieved by subsequent addition of oligomycin 0.1 μM/mL (Sigma–Aldrich Chemie GmbH, Steinheim, Germany, #O4876) following state 3, oligomycin blocks the ATP-synthase, thereby inhibiting proton passage; State 3U: Was assessed by incremental steps of 1 μM addition of FCCP—theprotonophore carbonyl cyanide 4-(trifluoromethoxy) phenylhydrazone (Sigma–Aldrich Chemie GmbH, Steinheim, Germany, #C2920), this allowed the calculation of the reserve capacity of the Electron Transport Chain (ETC); Finally, sodium dithionite (DTT, Sigma–Aldrich Chemie GmbH, Steinheim, Germany, #15,795-3) was added to reduce all residual oxygen that was present in the chamber and to calibrate the oxygen content in the chamber. The O2 slope (pmol × (mL/s)) of isolated mitochondria was the oxygen concentration and also the initial derivate of the oxygen concentration—a derivative of oxygen consumption. Measurements were recorded in intervals of 2 s by using a background correction after calibration of the polarographic oxygen sensors.

CC1CCc2c(cc(Br)c(F)c2Br)N1C=O (centres unmarked) [CE3F4] was tested, and the “intracellular ROS production (CM-DCF)” value (HT-22 cells; 100 μM CE3F4 + erastin vs erastin alone, not restored to control levels) was “significant decrease in intracellular ROS production”, the “total intracellular ROS production (CM-DCF)” value (HT-22 cells; 100 μM CE3F4 alone) was “did not influence the amount of total intracellular ROS production” and the ADP-coupled respiration ([1]; 30 μM CE3F4) was “no significant differences”. For the same compound, the ADP-coupled respiration ([1]; 100 µM CE3F4) was “no significant differences” and the “mitochondrial respiration states (2, 3, 4, 3U)” value ([1]; CE3F4 30 μM and 100 μM, 25 min) was “no significant effect on any mitochondrial respiration states”.
